Laboratory results published in ChEMBL document CHEMBL3734721 (J Med Chem, 2015).

Tests used:
[1] = target: T1, Muscarinic acetylcholine receptor M2 (Homo sapiens, UniProt P08172); assay: Antagonist activity at human wild-type M2 receptor expressed in CHO-K1 cells assessed as acetylcholine-induced cAMP by HTRF assay; type: functional, cell-based
T1 sequence (P08172 whole entry): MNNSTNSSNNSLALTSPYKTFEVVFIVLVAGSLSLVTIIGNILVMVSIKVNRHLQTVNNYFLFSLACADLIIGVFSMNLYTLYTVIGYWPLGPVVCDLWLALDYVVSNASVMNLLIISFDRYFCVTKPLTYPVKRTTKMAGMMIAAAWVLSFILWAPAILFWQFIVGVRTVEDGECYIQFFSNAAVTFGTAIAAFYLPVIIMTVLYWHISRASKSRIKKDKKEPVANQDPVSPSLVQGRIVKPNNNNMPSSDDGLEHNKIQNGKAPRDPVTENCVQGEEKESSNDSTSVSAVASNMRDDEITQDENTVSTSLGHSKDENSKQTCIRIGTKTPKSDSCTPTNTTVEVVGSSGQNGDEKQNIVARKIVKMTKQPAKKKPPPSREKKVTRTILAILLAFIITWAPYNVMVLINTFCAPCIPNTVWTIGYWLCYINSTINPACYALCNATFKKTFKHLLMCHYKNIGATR

[2] = target: T2, Delta-type opioid receptor (Homo sapiens, UniProt P41143); assay: Antagonist activity at human wild-type opioid-delta 1 receptor expressed in CHO-K1 cells assessed as DPDPE-induced cAMP by HTRF assay; type: functional, cell-based
T2 sequence (P41143 whole entry): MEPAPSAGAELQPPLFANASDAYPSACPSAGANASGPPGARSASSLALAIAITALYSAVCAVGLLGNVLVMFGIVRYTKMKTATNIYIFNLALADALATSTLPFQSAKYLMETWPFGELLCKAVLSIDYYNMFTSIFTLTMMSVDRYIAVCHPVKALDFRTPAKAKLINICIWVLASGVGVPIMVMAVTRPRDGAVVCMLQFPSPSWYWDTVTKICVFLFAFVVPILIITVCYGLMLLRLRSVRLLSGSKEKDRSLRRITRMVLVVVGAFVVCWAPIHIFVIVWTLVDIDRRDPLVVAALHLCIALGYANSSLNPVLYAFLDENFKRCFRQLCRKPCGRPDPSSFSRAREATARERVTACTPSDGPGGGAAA

[3] = target: T2, Delta-type opioid receptor; assay: Agonist activity at human wild-type opioid-delta 1 receptor expressed in CHO-K1 cells assessed as cAMP level by HTRF assay; type: functional, cell-based
[4] = Intrinsic clearance in mouse liver microsomes at 1 uM by HPLC/MS/MS analysis; type: ADME; conditions: read-out: CLH
[5] = Chemical stability of compound in 0.1N HCL and 0.5% H2O2 assessed as compound remaining at 10 mg/ml after 1 day; type: physicochemical; conditions: read-out: Stability
human MDR1 = assay: Efflux ratio of permeability across basolateral to apical side over apical to basolateral side in MDCK cells expressing human MDR1 at 5 uM by LC-MS/MS method; type: ADME, cell-based, Canis lupus familiaris; conditions: dog
Salmonella typhimurium = assay: Mutagenicity in Salmonella typhimurium by Ames test; type: toxicity, organism-based; conditions: salmonella enterica subsp. enterica serovar typhimurium

Row | SMILES | IC50 [1] [µM] | IC50 [2] [µM] | EC50 [3] [µM] | microsomal CLint at 1 µM [4] [µL/min/mg] | remaining at 24 h, 10 mg/ml [5] [%] | efflux ratio at 5 µM (human MDR1) | Activity (Salmonella typhimurium)
1 | CB1C=Cc2c(cccc2OCC(O)CN(C)C)N1 (centres undefined) | > 5.01 | > 5.01 | > 5.01 | 175 | – | – | –
2 | CB1C=Cc2cccc(OCC(O)CNC(C)C)c2N1 (centres undefined) | > 5.01 | – | – | > 346 | 0 | 2.1 | Non-toxic
